Results published in patent US9128097B2, “Method and kit for assessing viable cells” (ChemoMetec A/S, priority 2008, dated 2015).

What was measured:
Jurkat (JM) cells = test: Staining of proliferating Jurkat cells with labelling agent and propidium iodide, fluorescence microscopy; assay type: cell-based; conditions: 10 μL agent (100 μg pr. mL DMSO) added to 90 μL cells, only exception PI positive cells
Description: (§1) Materials and Methods. Jurkat (JM) cells were grown at 37° C. in a humidified air atmosphere with 5% CO2 in RPMI (Invitrogen, #61870) supplemented with 10% heat-inactivated fetal bovine serum (Invitrogen, #10108-165). 90 μL proliferating Jurkat cells (cell density 1.2×10^6, 99% viable determined using the NC-100 NucleoCounter system following the manufacturer's (ChemoMetec A/S) protocol) were added 10 μL NAM (N-(9-acridinyl)maleimide, Sigma, #01665, CAS no. 49759-20-8) dissolved in DMSO (100 μg NAM pr. mL DMSO) and mixed by pipetting. Cells were loaded into a NucleoCassette, containing the DNA stain propidium iodide (PI). The cells were investigated using an Olympus IX50 fluorescence microscope, and images were captured using a Lumenera CCD camera and in-house developed software. PI and NAM fluorescence were detected using, respectively, U-MWG2 (green long pass: 510-550 nm) and U-MNUA2 (UV band pass, 330-385 nm) filter cubes (Olympus).
as §1, with “1.0×10^6,” for “1.2×10^6,”, “(ChemoMetec)” for “(ChemoMetec A/S)”, “CPM (7-diethylamino-3-[4′-maleimidylphenyl]-4-methylcoumarin, Chemodex Ltd.,” for “NAM (N-(9-acridinyl)maleimide, Sigma, #01665,”, “76877-33-3)” for “49759-20-8)”, “CPM” for “NAM”
as §1, with “1.1×10^6, 98%” for “1.2×10^6, 99%”, “(ChemoMetec)” for “(ChemoMetec A/S)”, “PM (N-(1-Pyrenyl)maleimide, Sigma P7908” for “NAM (N-(9-acridinyl)maleimide, Sigma, #01665,”, “42189-56-0)” for “49759-20-8)”, “PM” for “NAM”, “Cells were loaded into a NucleoCassette, containing the DNA stain propidium iodide (PI).” left out
Materials and Methods. […] 90 μL proliferating Jurkat cells (cell density 1.1×10^6, 98% viable determined using the NC-100 NucleoCounter system following the manufacturer's (ChemoMetec) protocol) were added 10 μL CPI (7-diethylamino-3-((4′-(iodoacetyl)amino)phenyl)-4-methylcoumarin, Sigma 78264 CAS no. 76877-34-4) dissolved in DMSO (100 μg CPI pr. mL DMSO) and mixed by pipetting. […] The cells were investigated using an Olympus IX50 fluorescence microscope, and images were captured using a Lumenera CCD camera and in-house developed software. PI and CPI fluorescence were detected using, respectively, U-MWG2 (green long pass: 510-550 nm) and U-MNUA2 (UV band pass, 330-385 nm) filter cubes (Olympus). […]

HEK293 cells = test: NAM/PI staining of outgrown HEK293 cells, fluorescence microscopy; assay type: cell-based, Human; conditions: HEK293 cells treated with 0.25% Triton X-100; 10 μg/mL NAM
Description: Materials and Methods. HEK293 cells were grown at 37° C. in a humidified air atmosphere with 5% CO2 in DMEM (Invitrogen, #31966) supplemented with 10% heat-inactivated fetal bovine serum (Invitrogen, #10108-165). Cells were harvested with 0.5 mL of trypsin (Invitrogen, #25300) and neutralized with 5 mL medium (DMEM+10% FCS) two days after they had reached full confluency. These outgrown HEK293 cells (cell density 1.6×10^6, 78% viable determined using the NC-100 NucleoCounter system following the manufacturer's (ChemoMetec) protocol) were stained with 10 μg/mL NAM (Sigma, #01665). Another cell sample were treated with 0.25% Triton X-100 (Sigma, #T9284) and hereafter added 10 μg/mL NAM. After staining, each cell sample was loaded into a NucleoCassette, containing the DNA stain propidium iodide (PI). The cells were investigated using an Olympus IX50 fluorescence microscope, and images were captured using a Lumenera CCD camera and in-house developed software. PI and NAM fluorescence were detected using, respectively, U-MWG2 (green long pass: 510-550 nm) and U-MNUA2 (UV band pass, 330-385 nm) filter cubes (Olympus).

[1] = tested on: bone marrow derived dendritic cells (BM-DCs); test: Staining of bone marrow derived dendritic cells with labelling agent and PI; assay type: cell-based, murine; conditions: dendritic cells 97% viable; 10 μL mCB (100 μg pr. mL DMSO) to 90 μL cells; incubated at room temperature for 1 hour
Excerpt: Materials and Methods. Dendritic cells were developed from murine bone marrow derived cells as described by “Lutz, M. B., N. Kukutsch, A. L. Ogilvie, S. Rossner, F. Koch, N. Romani, and G. Schuler. 1999. An advanced culture method for generating large quantities of highly pure dendritic cells from mouse bone marrow. J Immunol Methods 223:77-92”. Bone marrow cells were harvested aseptically in the laminar flow hood as described in example 11. Washed and resuspended bone marrow cells were resuspended in RPMI 1640 (Invitrogen, #61870) supplemented with 10% heat-inactivated fetal bovine serum (Invitrogen, #10108-165), 100 U/mL penicillin and 100 μg/mL streptomycin (Invitrogen, #15140-122). […] 90 μL dendritic cells (cell density 1.2×10^6, 97% viable determined using the NC-100 NucleoCounter system following the manufacturer's (ChemoMetec A/S) protocol) were added 10 μL NAM (N-(9-acridinyl)maleimide, Sigma, #01665, CAS no. 49759-20-8) dissolved in DMSO (100 μg NAM pr. mL DMSO) and mixed by pipetting. […] The cells were investigated using an Olympus IX50 fluorescence microscope, and images were captured using a Lumenera CCD camera and in-house developed software. PI and NAM fluorescence were detected using, respectively, U-MWG2 (green long pass: 510-550 nm) and U-MNUA2 (UV band pass, 330-385 nm) filter cubes (Olympus). […]

CCN(CC)c1ccc2c(C)c(-c3ccc(NC(=O)CI)cc3)c(=O)oc2c1 [CPI, 7-diethylamino-3-((4′-(iodoacetyl)amino)phenyl)-4-methylcoumarin]
staining of cells (UV filter) versus PI positive cells (Jurkat (JM) cells): nearly all cells were stained by CPI

CCN(CC)c1ccc2c(C)c(-c3ccc(N4C(=O)C=CC4=O)cc3)c(=O)oc2c1 [CPM, 7-diethylamino-3-[4′-maleimidylphenyl]-4-methylcoumarin]
staining of cells (UV filter) versus PI positive cells (Jurkat (JM) cells): nearly all cells were stained by CPM

CC[N+](C)(CC)CCC[n+]1c(-c2ccccc2)c2cc(N)ccc2c2ccc(N)cc21.[I-].[I-] [PI, propidium iodide]
staining of Triton X-100 treated cells (HEK293 cells): PI positive

O=C1C=CC(=O)N1c1ccc2ccc3cccc4ccc1c2c34 [PM, N-(1-Pyrenyl)maleimide]
staining of cells (UV filter) versus PI positive cells (Jurkat (JM) cells): nearly all cells were stained by PM

Cc1c(C)n2c(CCl)c(C)c(=O)n2c1=O [mCB, monochlorobimane]
staining of cells (UV filter) versus PI positive cells [1]: nearly all the dendritic cells were stained by mCB
